Measured values reported in patent publication US4360665A, “4"-N-(Substituted)-apramycin antibiotic derivatives and intermediates therefor” (Eli Lilly and Company, priority 1981, dated 1982).
Where two headings read alike, the source gives them in different places.

What was measured:
Experiment in all cases: MIC by standard agar dilution test
Type in all cases: cell-based
[1] = tested on: Serratia marcescens SE3
Text: (§1) The antibacterial activity of the antibiotic compounds of this invention is illustrated by the following in vitro and in vivo test data obtained with representative compounds. In Tables I and II, the minimum inhibitory concentration (MIC) for representative compounds against a wide range of gram-positive and gram-negative bacteria are presented. The MIC values were obtained by the standard agar dilution test.

[2] = tested on: Pseudomonas aeruginosa Ps18; details: Pseudomonas aeruginosa, PS18, read-out: Minimum Inhibitory Concentration
Text: as §1

[3] = tested on: Salmonella heidelberg X514; details: Salmonella enterica, Table 1, read-out: Minimum Inhibitory Concentration
Text: as §1

[4] = tested on: Enterobacter cloacae EN453; details: Table II, read-out: Minimum Inhibitory Concentration
Text: as §1

[5] = tested on: Proteus inconstans PV25; details: Providencia alcalifaciens, Table II, read-out: Minimum Inhibitory Concentration
Text: as §1

[6] = tested on: Staphylococcus aureus S13E; details: read-out: Minimum Inhibitory Concentration
Text: as §1

[7] = tested on: Klebsiella pneumoniae X26; details: Table 1, read-out: Minimum Inhibitory Concentration
Text: as §1

[8] = tested on: Klebsiella pneumoniae KL2; details: Table II, read-out: Minimum Inhibitory Concentration
Text: as §1

[9] = tested on: Proteus rettgeri PR2; details: Providencia rettgeri, Table II, read-out: Minimum Inhibitory Concentration
Text: as §1

[10] = tested on: Proteus inconstans PR33; details: Providencia alcalifaciens, Table 1, read-out: Minimum Inhibitory Concentration
Text: as §1

[11] = tested on: Pseudomonas aeruginosa Ps25; details: Table II, read-out: Minimum Inhibitory Concentration
Text: as §1

[12] = tested on: Enterobacter cloacae 265A; details: Table 1, read-out: Minimum Inhibitory Concentration
Text: as §1

[13] = tested on: Staphylococcus epidermidis EPI1; details: Table 1, read-out: Minimum Inhibitory Concentration
Text: as §1

[14] = tested on: Staphylococcus aureus X400; details: Table 1, read-out: Minimum Inhibitory Concentration
Text: as §1

[15] = tested on: Salmonella typhimurium 1335; details: Salmonella enterica, Table 1, read-out: Minimum Inhibitory Concentration
Text: as §1

[16] = tested on: Citrobacter freundii CF17; details: Table 1, read-out: Minimum Inhibitory Concentration
Text: as §1

[17] = tested on: Pseudomonas aeruginosa X239
Text: as §1

[18] = tested on: Pseudomonas aeruginosa Ps9; details: Table II, read-out: Minimum Inhibitory Concentration
Text: as §1

[19] = tested on: Shigella sonnei N9; details: Table 1, read-out: Minimum Inhibitory Concentration
Text: as §1

[20] = tested on: Pseudomonas aeruginosa Ps15; details: Table II, read-out: Minimum Inhibitory Concentration
Text: as §1

[21] = tested on: Enterobacter aerogenes X68; details: Klebsiella aerogenes, Table 1, read-out: Minimum Inhibitory Concentration
Text: as §1

[22] = tested on: Serratia marcescens SE2; details: Table II, read-out: Minimum Inhibitory Concentration
Text: as §1

[23] = tested on: Proteus morganii PR15; details: Morganella morganii, Table 1, read-out: Minimum Inhibitory Concentration
Text: as §1

[24] = tested on: Pseudomonas aeruginosa X528
Text: as §1

[25] = tested on: Bordetella bronchiseptica 16; details: Table 1; Bordetella bronchiseptica 16; agar dilution; read-out: Minimum Inhibitory Concentration
Text: as §1

[26] = tested on: Klebsiella pneumoniae KAE; details: Table 1, read-out: Minimum Inhibitory Concentration
Text: as §1

[27] = tested on: Proteus rettgeri C24; details: Providencia rettgeri, Table 1, read-out: Minimum Inhibitory Concentration
Text: as §1

[28] = tested on: Haemophilus influenzae HOLT; details: Table 1, read-out: Minimum Inhibitory Concentration
Text: as §1

[29] = tested on: Enterobacter cloacae EB5; details: Table 1, read-out: Minimum Inhibitory Concentration
Text: as §1

[30] = tested on: Streptococcus group D 9960; details: D9960, Table 1, read-out: Minimum Inhibitory Concentration
Text: as §1

[31] = tested on: Pseudomonas aeruginosa 4276; details: Table II, read-out: Minimum Inhibitory Concentration
Text: as §1

[32] = tested on: Streptococcus group D X66; details: DX66, Table 1, read-out: Minimum Inhibitory Concentration
Text: as §1

[33] = tested on: Proteus rettgeri PR7; details: Providencia rettgeri, Table 1, read-out: Minimum Inhibitory Concentration
Text: as §1

[34] = tested on: Pseudomonas aeruginosa PI23; details: Table II, read-out: Minimum Inhibitory Concentration
Text: as §1

[35] = tested on: Enterobacter aerogenes C32; details: Klebsiella aerogenes, Table 1, read-out: Minimum Inhibitory Concentration
Text: as §1

[36] = tested on: Streptococcus pneumoniae Park 1; details: PARK1, Table 1, read-out: Minimum Inhibitory Concentration
Text: as §1

[37] = tested on: Streptococcus pyogenes C203; details: Table 1, read-out: Minimum Inhibitory Concentration
Text: as §1

[38] = tested on: Enterobacter aerogenes EB17; details: Klebsiella aerogenes, Table 1, read-out: Minimum Inhibitory Concentration
Text: as §1

[39] = tested on: Proteus morganii PR1; details: Morganella morganii, Table II, read-out: Minimum Inhibitory Concentration
Text: as §1

[40] = tested on: Escherichia coli EC14; details: Table 1, read-out: Minimum Inhibitory Concentration
Text: as §1

[41] = tested on: Haemophilus influenzae R252; details: Haemophilus influenzae, R252, read-out: Minimum Inhibitory Concentration
Text: as §1

[42] = tested on: Enterobacter aerogenes EB6; details: Klebsiella aerogenes
Text: as §1

[43] = tested on: Staphylococcus aureus X1.1; details: Table 1, read-out: Minimum Inhibitory Concentration
Text: as §1

[44] = tested on: Staphylococcus aureus V41; details: Table 1, read-out: Minimum Inhibitory Concentration
Text: as §1

[45] = tested on: Escherichia coli N10; details: Table 1, read-out: Minimum Inhibitory Concentration
Text: as §1

[46] = tested on: Pseudomonas aeruginosa SF-2; details: SF2, Table II, read-out: Minimum Inhibitory Concentration
Text: as §1

[47] = tested on: Escherichia coli TEM; details: read-out: Minimum Inhibitory Concentration
Text: as §1

[48] = tested on: Serratia marcescens X99
Text: as §1

[49] = tested on: Enterobacter cloacae EB24
Text: as §1

[50] = tested on: Staphylococcus epidermidis EPI2; details: Table 1, read-out: Minimum Inhibitory Concentration
Text: as §1

[51] = tested on: Pseudomonas aeruginosa X48; details: Table II, read-out: Minimum Inhibitory Concentration
Text: as §1

[52] = SE3, Table II, read-out: Minimum Inhibitory Concentration
[53] = X239, Table II, read-out: Minimum Inhibitory Concentration
[54] = X99, Table II, read-out: Minimum Inhibitory Concentration

CCN[C@H]1[C@H](O)[C@@H](O)[C@@H](O[C@H]2O[C@H]3C[C@@H](N)[C@@H](O[C@H]4[C@H](O)[C@@H](O)[C@H](N)C[C@@H]4N)O[C@@H]3[C@H](O)[C@@H]2NC)O[C@@H]1CO [Test Compound 2, 4"-N-Ethylapramycin]
2 µg/mL: MIC [28] | MIC ([42]; EB6, read-out: Minimum Inhibitory Concentration) | MIC [48, 54]
64 µg/mL: MIC [18]
32 µg/mL: MIC [14] | MIC ([24]; Table 1, read-out: Minimum Inhibitory Concentration) | Minimum Inhibitory Concentration ([24]; Table II) | MIC [25] | MIC [36] | MIC [37] | MIC [50]
4 µg/mL: MIC [1, 52] | MIC [2] | MIC [4] | MIC [5] | MIC [8] | MIC [10] | MIC [22] | MIC [38] | MIC [39] | MIC [47] | MIC ([49]; Table II, Enterobacter cloacae EB24, agar dilution, read-out: Minimum Inhibitory Concentration)
> 128 µg/mL: MIC [30] | MIC [32] | MIC [34]
8 µg/mL: MIC [7] | MIC [9] | MIC [12] | MIC [13] | MIC [21] | MIC [26] | MIC [27] | MIC [31] | MIC [33] | MIC [35] | MIC [40] | MIC [43] | MIC ([48]; X99, Table 1, read-out: Minimum Inhibitory Concentration)
16 µg/mL: MIC ([1]; SE3, Table 1, read-out: Minimum Inhibitory Concentration) | MIC [3] | MIC [6] | MIC [11] | MIC [15] | MIC [16] | MIC ([17]; X239, Table 1, read-out: Minimum Inhibitory Concentration) | MIC [17, 53] | MIC [19] | MIC [20] | MIC [23] | MIC [29] | MIC [44] | MIC [45] | MIC [46]
1 µg/mL: MIC [41]

CN[C@@H]1[C@@H](O[C@H]2O[C@H](CO)[C@@H](NCc3ccccc3)[C@H](O)[C@H]2O)O[C@H]2C[C@@H](N)[C@@H](O[C@H]3[C@H](O)[C@@H](O)[C@H](N)C[C@@H]3N)O[C@@H]2[C@@H]1O [Test Compound 3, 4"-N-Benzylapramycin]
4 µg/mL: MIC [48, 54] | MIC ([49]; Enterobacter cloacae, EB24, read-out: Minimum Inhibitory Concentration)
16 µg/mL: MIC [22]
64 µg/mL: MIC [5] | MIC [11]
8 µg/mL: MIC [1, 52] | MIC [4] | MIC [8] | MIC ([42]; Table II, Enterobacter aerogenes EB6, agar dilution, read-out: Minimum Inhibitory Concentration)
> 128 µg/mL: MIC [9] | MIC [18] | MIC ([24]; Table II, read-out: Minimum Inhibitory Concentration) | MIC [51] | MIC [31] | MIC [34]
128 µg/mL: MIC [17, 53] | MIC [20] | MIC [46]
32 µg/mL: MIC [39]
